Structures can show the parent of a compound that is named as a salt. Where two headings read alike, the source gives them in different places. Values belong to the molecule of their own block, whether it stands above or below them.
Columns and labels:
[1] = system: ischemia-induced neurological symptoms in the Mongolian Gerbil; assay: Improvement of ischemia-induced neurological symptoms in the Mongolian gerbil caused by ligation of the bilateral common carotid arteries for 30 minutes; assay type: in vivo; conditions: 100 mg/kg i.p. upon recommencement of blood flow
Procedure: The test animals employed were male adult Mongolian gerbils (16-20 weeks old). These were used in groups each consisting of from 10 to 20 animals. The bilateral common carotid arteries were occluded for 30 minutes under anesthesia with pentobarbital (30 mg/kg, intraperitoneally) and halothane (it was introduced to a mixture of 95% oxygen and 5% carbon dioxide at a concentration of 1.5% by volume) and then the occlusion was released to allow the blood to flow. The animal was then placed in a supine position, and we measured (1) the time taken from recommencement of blood flow until convulsions occurred and (2) the survival time. Observations to determine the onset time of convulsions and the survival time were continued for 6 and 7 hours, respectively, after recommencement of blood flow. […] The compound to be tested was suspended in a 0.5% w/v carboxymethyl cellulose (CMC) aqueous solution and administered intraperitoneally upon recommencement of blood flow in the common carotid arteries. On the other hand, a 0.5% CMC solution containing no test compound was administered likewise to a control group. Statistical analysis was carried out using the Mann-Whitney U-test between the control group and the test group.

[2] = system: ischemia-induced neurological symptoms in SHR SP; assay: Improvement in ischemia-induced neurological symptoms in Spontaneously Hypertensive Rats Stroke Prone (SHR SP) caused by ligation of the bilateral common carotid arteries; assay type: in vivo, rat (SHR SP)
Procedure: The test animals employed were male adult SHR SPs (13 or 15 weeks old). They were used in groups each consisting of about 10 animals. Under halothane anesthesia, both common carotid arteries of each animal were ligated to prepare a brain ischemia model. The halothane anesthesia was stopped immediately after the ligation, and then the time taken to recover the righting reflex, the onset time of convulsions and the survival time were determined. The test solution was prepared in the same manner as described in Experiment 1 and was administered to the animal intraperitoneally 30 minutes before the ligation. A 0.5% CMC solution was administered to the control group in the same manner. The statistical analysis was carried out in a similar manner to that in Experiment 1. The statistical analysis of the survival rate was carried out by the X^2 test.

thiopental anesthesia = assay: Potentiation of thiopental anesthesia (mice); assay type: in vivo, mouse (ddY strain); conditions: for Anesthesia time: thiopental 30 mg/kg after one hour
Procedure: In the test method, male adult mice of ddY strain each weighing 20 to 30 g were used as divided groups each made up of 5 to 7 mice. Test compounds suspended in 0.5% CMC solution were orally administered. After one hour, thiopental (30 mg/kg) was injected into the tail vein, and the time required for the mouse to recover the righting reflex was measured.

[3] = system: decerebrate rigidity in rats; assay: Suppression of decerebrate rigidity in rats; assay type: in vivo, rat
spinal reflex in cats = assay: Effect on spinal reflex in cats; assay type: in vivo, cat
Procedure: Adult cats weighing 3.0 to 4.5 kg each were used. After induction of anesthesia with ether, the animal was anesthetized by intravenous injection of 50 mg/kg of a-chloralose. After the trachea was cannulated, the animal was fixed on a stereotaxic apparatus, and the lumbosacral spinal cord was exposed by laminectomy from L3 to S1. The ventral roots of the right side were cut from L6 to S1 as distal as possible and the cut ends were ligated with cotton thread previously immersed in Ringer's solution. The exposed spinal cord was covered with warmed mineral oil and maintained at 37° C. The ventral root, either L7 or S1, was fixed on a pair of platinum wire electrodes. A pair of collar-type electrodes was implanted on the ipsilateral tibial nerve and the saphenous nerve, for stimulation. After completion of all these operations, the cat was immobilized with pancronium bromide (0.5 mg/kg, i.v.) and maintained by artificial respiration (40/minute). Recording was started at least 2 hours after withdrawal of ether anesthesia. A single square pulse (0.01 to 0.1 msecond pulse width, supramaximal intensity) was applied to the nerve at a frequency of 0.3 Hz from an electronic stimulator. […] In a similar manner to Experiment 2, the blood pressure, heart beat and body temperature of the animal were recorded and monitored. Compounds to be tested were also administered in a similar manner.

[4] = system: decerebrate rigidity in rats; assay: Suppression of decerebrate rigidity in rats; assay type: in vivo, rat; remark: listed apart in the source
Source text: The suppression of decerebrate rigidity in laboratory animals, such as rats, is a well known model for control of human spasticity and/or rigidity.
In the test method, a rat was anesthetized with halothane and fixed on a stereotaxic apparatus (SR-5, Narishige). In accordance with the brain atlas by Pellegrino et al., [L. J. Pellegrino, A. S. Pellegrino & A. J. Cushman: A Stereotaxic Atlas of the Rat Brain, Plenum Press, New York and London (1967)], an electrode 0.7 mm in diameter, which was insulated except for 1 mm at the tip, was inserted bilaterally into the midbrain reticular formation (AP: 0, L: ±1.5, H: -3.0). A clip serving as the reference electrode was fixed on the temporal muscle. Through these electrodes, a high frequency electric current (100 KHz, 10 to 20 mA) was applied from a lesion generator (Glass Co., LM4A) for 2 to 3 minutes to cauterize electrically this brain region.
The rat was then immediately set free from the stereotaxic apparatus. A polyethylene cannula was inserted into the duodenum and fixed with an acrylic resin (Aron Alfa, Sankyo Co., Ltd.). After completion of these operations, halothane anesthesia was immediately discontinued.
After 1.5 hours, when the animal awoke from the anesthesia, the rat was fixed on an apparatus devised in our laboratory for a hind leg fixation. Both hind legs were fixed at the anterior part of the ankle joints. Both hindlimb paws were then pushed in 4 mm for 6 seconds in every minute. The resulting repulsive tension was drawn on a polygraph through a strain gauge.
The test compounds were suspended in a 0.5% w/v CMC (carboxymethyl cellulose) aqueous solution and were administered orally (p.o.) or intraperitoneally (i.p.).
The results are summarized in the following Table 7, where the compounds of the present invention are identified by the number of the foregoing Example in which each was prepared, Compound X is the known compound eperisone hydrochloride, and Compound Y is the known compound afloqualone.

[5] = system: decerebrate rigidity (cats); assay: Suppression of decerebrate rigidity (cats); assay type: in vivo, cat
Source text: Adult cats each weight 3.0 to 4.5 kg were used. Under ether anesthesia, the trachea was cannulated and the common carotid arteries were ligated at both sides. The cat was decerebrated by suction at the precollicular level. Ether anesthesia was then immediately discontinued. A pair of needle electrodes was inserted into the neck muscle in order to pick up any EMG muscular discharges. The EMG discharge was amplified and recorded on a pen-writing recorder, along with an integration of the EMG discharge. Recording was started at least 2 hours after withdrawal of anesthesia. Blood pressure induced from the femoral artery, as well as body temperature and heart beat, were recorded and monitored throughout the experiment.
After stable EMG discharges were obtained, the test compounds suspended in 0.5% CMC solution were administered into the duodenum through a previously inserted cannula. The effect of the test compound was expressed as the ratio of the integrated EMG discharge after administration relative to the value before administration.

[6] = system: survival time under hypoxic conditions; assay: Effect on survival time under hypoxic conditions; assay type: in vivo, mouse (ddY strain); conditions: 4% oxygen, 96% nitrogen
Source text: The test animals employed were male adult mice (5 weeks old and about 30 g body weight) of the ddY strain. The animals were employed in groups, each containing from 7 to 17 animals. Each animal was given intraperitoneally a test compound in suspension (as in the preceding Experiments). Thirty (30) minutes after this administration, 2 or 3 animals were placed in a 1.5 liter gas chamber made of acrylate resin, and a mixture of 4% by volume oxygen and 96% nitrogen was supplied at the rate of 10 liters/minute. The time of death of the animal was measured (determined by the cessation of respiration).

[7] = 30 mg/kg i.p. 30 minutes before ligation
[8] = 100 mg/kg i.p. 30 minutes before ligation
[9] = 100 mg/kg, administered as in Experiment 2
[10] = 100 mg/kg, after administration
[11] = Rattus norvegicus, po, 30 mg/kg p.o., read-out: Maximum inhibition

Structure (SMILES): O=c1c(Cl)c(-c2ccccc2)on1CC(O)CN1CCOCC1 (stereo not drawn) [2a hydrochloride]
- Onset time of convulsions [1]: 289.4 min
- Survival time [1]: 375.7 min
- Onset time of convulsions [2, 7]: 99.8 ± 27.8 min
- Recovery time of righting reflex [2, 7]: 8.0 ± 1.7 min
- Survival time [2, 7]: 232.1 ± 35.8 min
- Onset time of convulsions [2, 8]: 103.5 ± 16.2 min
- Recovery time of righting reflex [2, 8]: 7.6 ± 1.7 min
- Survival time [2, 8]: 233.0 ± 28.7 min

- Anesthesia time (thiopental anesthesia; 50 mg/kg p.o.): 288.5 ± 20.1 s
- Anesthesia time (thiopental anesthesia; 100 mg/kg p.o.): 237.3 ± 25.5 s
Structure (SMILES): O=c1cc(-c2ccccc2)on1CC(O)CN1CCOCC1 (stereo not drawn) [Compound 1a]
- Drowsiness (the adverse effect), implied (thiopental anesthesia; compared with afloqualone): induce drowsiness (the adverse effect) less than afloqualone
- Prolongation of the duration of thiopental-induced anesthesia, in words (thiopental anesthesia; in comparison with eperisone hydrochloride): did not significantly prolong the duration of thiopental-induced anesthesia
- Duration of the effect ([3]; 10 mg/kg i.d.): > 90 min
- inhibition in vivo at 30 mg/kg ([3]; Rattus norvegicus, intraduodenal, 30 mg/kg i.d., read-out: Maximum inhibition): 60%
- Duration of the effect on spinal reflexes (spinal reflex in cats; 100 mg/kg): about 2 hours
- Monosynaptic reflex (spinal reflex in cats; [9]): little affected
- Polysynaptic reflex (spinal reflex in cats; [9]): remarkably inhibited
- Spino-bulbo-spinal reflex (spinal reflex in cats; [9]): remarkably inhibited
- Onset of the effect on spinal reflexes (spinal reflex in cats; [10]): 5 min
- Time of maximum effect on spinal reflexes (spinal reflex in cats; [10]): 30 min
- Mechanism shown by spinal reflexes (spinal reflex in cats; in vivo): interneuron blockers
- Onset of the effect ([4]; 10 mg/kg i.d.): 10 min
- Duration of the effect ([4]; 30 mg/kg i.d.): > 180 min
- Onset of the effect ([4]; 30 mg/kg i.d.): 5 min
- Duration of the effect ([4]; 30 mg/kg i.p.): > 120 min
- Onset of the effect ([4]; 30 mg/kg i.p.): 5 min
- Duration of the effect ([4]; 30 mg/kg p.o.): > 160 min
- Onset of the effect ([4]; 30 mg/kg p.o.): 10 min
- inhibition in vivo at 10 mg/kg ([4]; Rattus norvegicus, intraduodenal, 10 mg/kg i.d., read-out: Maximum inhibition): 20%
- inhibition in vivo at 30 mg/kg ([4]; Rattus norvegicus, ip, 30 mg/kg i.p., read-out: Maximum inhibition): 60%
- inhibition in vivo at 30 mg/kg [4, 11]: 95%
- Inhibition of decerebrate rigidity ([5]; 100 mg/kg intraduodenal, 5 minutes after administration): About 30%
- Inhibition of decerebrate rigidity ([5]; 100 mg/kg intraduodenal, 1 hour after administration): about 65%
- Duration of inhibitory effects ([5]; 100 mg/kg intraduodenal, throughout the observation period): ≥ 2 h
- Side effects and duration of action compared with eperisone hydrochloride ([5]; compared with eperisone hydrochloride): weaker in side effects and of longer action than eperisone hydrochloride

Structure (SMILES): NC(=O)OCC(O)COc1noc2ccc(Cl)cc12 (stereo not drawn) [Example 3, 3-(3-Carbamoyloxy-2-hydroxypropoxy)-5-chloro-1,2-benzisoxazole]
- Duration of the effect ([4]; 20 mg/kg p.o.): > 90 min
- Onset of the effect ([4]; 20 mg/kg p.o.): 5 min
- Duration of the effect ([4]; 30 mg/kg p.o.): > 90 min
- Onset of the effect ([4]; 30 mg/kg p.o.): 5 min
- Duration of the effect ([4]; 100 mg/kg p.o.): > 90 min
- Onset of the effect ([4]; 100 mg/kg p.o.): 5 min
- inhibition in vivo at 20 mg/kg ([4]; Rattus norvegicus, po, 20 mg/kg p.o., read-out: Maximum inhibition): 60%
- inhibition in vivo at 30 mg/kg [4, 11]: 90%
- inhibition in vivo at 100 mg/kg ([4]; Rattus norvegicus, po, 100 mg/kg p.o., read-out: Maximum inhibition): 90%
- Survival time ([6]; 30 mg/kg i.p.): 213.0 ± 27.5 s
- Survival time ([6]; 100 mg/kg i.p.): 446.7 ± 36.9 s
- Onset time of convulsions and survival time, in words ([2]; 30 mg/kg): prolonged onset time of convulsions, survival time significantly
- Onset time of convulsions [2, 7]: 106.5 ± 9.9 min
- Recovery time of righting reflex [2, 7]: 7.1 ± 0.9 min
- Survival rate [2, 7]: 80.0%
- Survival time [2, 7]: 392.2 ± 21.2 min
- Onset time of convulsions and survival time, in words ([2]; 100 mg/kg): prolonged onset time of convulsions, survival time significantly
- Survival rate of ischemic animals, in words ([2]; 100 mg/kg): increased survival rate of ischemic animals
- Onset time of convulsions [2, 8]: 306.9 ± 17.1 min
- Recovery time of righting reflex [2, 8]: 36.3 ± 16.7 min
- Survival rate [2, 8]: 100%
- Survival time [2, 8]: 420.0 ± 0.0 min

Structure (SMILES): NC(=O)OCC(O)COc1cc(-c2cccc(Cl)c2)on1 (stereo not drawn) [Example 4, 3-(3-Carbamoyloxy-2-hydroxypropoxy)-5-(m-chlorophenyl)isoxazole]
- Onset time of convulsions [1]: 233.9 min
- Recovery time of righting reflex [1]: 115.7 min
- Survival time [1]: 344.2 min
- Survival time ([6]; 100 mg/kg i.p.): 178.9 ± 15.0 s
- Onset time of convulsions and survival time, in words ([2]; 100 mg/kg): prolonged onset time of convulsions, survival time significantly
- Onset time of convulsions [2, 8]: 97.6 ± 18.0 min
- Recovery time of righting reflex [2, 8]: 10.1 ± 1.8 min
- Survival rate [2, 8]: 44.4%
- Survival time [2, 8]: 322.4 ± 34.8 min

Structure (SMILES): Cl.OC(COc1cc(-c2ccccc2)on1)CN1CCOCC1 (stereo not drawn) [Example 20, 3-(2-Hydroxy-3-morpholinopropoxy)-5-phenylisoxazole hydrochloride]
- Survival time ([6]; 30 mg/kg i.p.): 124.6 ± 15.4 s
- Survival time ([6]; 100 mg/kg i.p.): 349.5 ± 59.1 s
- Onset time of convulsions and survival time, in words ([2]; 30 mg/kg): prolonged onset time of convulsions, survival time significantly
- Onset time of convulsions [2, 7]: 71.9 ± 9.3 min
- Recovery time of righting reflex [2, 7]: 6.5 ± 0.6 min
- Survival rate [2, 7]: 36.4%
- Survival time [2, 7]: 295.9 ± 32.3 min
- Onset time of convulsions and survival time, in words ([2]; 100 mg/kg): prolonged onset time of convulsions, survival time significantly
- Onset time of convulsions [2, 8]: 176.7 ± 25.8 min
- Recovery time of righting reflex [2, 8]: 6.9 ± 0.9 min
- Survival rate [2, 8]: 63.6%
- Survival time [2, 8]: 371.9 ± 26.3 min
